The text below walks through data of article PMC4363603, “Inhibitory Effects of Chemical Compounds Isolated from the Rhizome of Smilax glabra on Nitric Oxide and Tumor Necrosis Factor-α Production in Lipopolysaccharide-Induced RAW264.7 Cell” (Evidence-based Complementary and Alternative Medicine : eCAM, 2015).

Holding throughout (type): cell-based, mouse
In one data set the test system is RAW264.7 cells. The data set is described as follows: MTT cell viability (cytotoxicity) assay. Particulars: 24 h incubation, concentration inhibiting 10% of cell proliferation, improved Karber methodology, defined as highest noncytotoxic concentration. The procedure:
(§1) The mouse macrophage-derived RAW264.7 cell line was purchased from Sun Yat-Sen University, Guangzhou, China, and maintained at 37°C in a humidified atmosphere containing 5% CO2 in Dulbecco's modified eagle medium (DMEM) supplemented with 10% heat-inactivated fetal bovine serum (FBS), penicillin (100 U/mL), and streptomycin (100 μg/mL). Cells in exponential growth phase were used for experiments.
The cytotoxicity of the isolated compounds toward RAW264.7 was evaluated by a conventional MTT assay as reported previously. RAW264.7 cells (1 × 10^5 cells/well) were inoculated to 96-well plates and incubated for 12 h and then treated with different concentrations of compounds. After additional 24 h incubation, 10 μL of MTT solution ([…]) was added to each well, and the plate was incubated for another 4 h. The medium was discarded and 150 μL of dimethyl sulfoxide (DMSO) was added to each well, solubilizing formazan. After 15 min incubation, absorbance at 570 nm was read using a microplate reader. The percent viability was calculated using the following formula: (1) Cell viability%=[…].
The anti-inflammatory activities of the isolates were tested in vitro for inhibiting the NO and TNF-α production in LPS-induced RAW264.7 cells. Firstly, the cytotoxicity of these compounds cells on the proliferation of RAW264.7 cells was measured by MTT assay. The IC10 value of each compound (Table 1), at which 10% of cells proliferation was inhibited, was calculated with an improved Karber methodology and defined as the highest noncytotoxic concentration. While the dose is ≤IC10, the effect of the isolated compound on RAW264.7 cells could be neglected. In the following experiments, the concentrations of each compound were set at [IC10] × 1, [IC10] × 10^−1, and [IC10] × 10^−2 levels.

Data set [1] concerns NO production in LPS-induced RAW264.7 cells. The data set can be described thus: Nitric oxide production in LPS-induced RAW264.7 cells (Griess assay). Particulars: for inhibitory effect on LPS-induced NO production (in words): compounds at [IC10] × 1, × 10^−1, × 10^−2. On the procedure:
as §1
Nitrite accumulation, as an indicator of NO production in the culture medium, was measured with the Griess reagent as reported previously. RAW264.7 cells were plated into 96-well plate at a density of 3 × 10^6 cells/mL. After 12 h incubation, cells were stimulated by LPS (100 ng/mL) with or without samples for 24 h. Subsequently, the supernatant (100 μL) was harvested and mixed with an equal volume of Griess reagent (0.1% N-(1-naphthyl) ethylenediamine dihydrochloride, 1% sulfanilamide, and 2.5% H3PO4) and stood for 15 min at room temperature in the dark. NO production was determined by measuring absorbance at 540 nm and was converted to nitrite concentration by reference to a standard curve generated with sodium nitrite.
Figure 1 Effects of ethanol extract of S. glabra (ESG) and its four subfractions (ESG-1, ESG-2, ESG-3, and ESG-4) on RAW264.7 cells viability and LPS-induced NO production. Cells viability (a) was tested by MTT assay; higher value of optical density at 490 nm means higher cell viability. Nitrite accumulated in cell culture supernatants was determined by Griess assay as an index for NO release (b). Cells were treated with LPS (1 μg/mL) for 24 h in the absence or presence of samples (1.6, 8.0, 40, and 200.0 μg/mL). The data were presented as mean ± S.D. (n = 5). Dexamethasone (DMS) was employed as a positive control. # and ###, respectively, mean P < 0.05 and P < 0.001 compared with control group. ∗, ∗∗, and ∗∗∗, respectively, mean P < 0.05, P < 0.01, and P < 0.001 compared with group treated with LPS alone.
(§2) Figure 4 The inhibitory effects of the isolated compounds on NO (a) and TNF-α (b) productions in LPS-induced RAW264.7 cells. Cells were seeded into 24-well plates and incubated for 12 h and then treated with or without different concentrations of compounds for 24 h (for NO) or […] (for TNF-α). The culture supernatant was analyzed for nitrite and TNF-α production. Results shown are representative of three separate experiments.

Data set [2] relates to TNF-α production in LPS-induced RAW264.7 cells. The data set can be described thus: TNF-α production in LPS-induced RAW264.7 cells (ELISA). Particulars: for IC50: Mus musculus, LPS-induced RAW264.7 cells; for inhibitory effect on LPS-induced TNF-α production (in words): RAW264.7 cells, compounds at [IC10] × 1, × 10^−1, × 10^−2. On the procedure: as §1
RAW264.7 cells (3 × 10^6 cells/mL) were seeded onto 24-well culture plate and incubated for 12 h. The cells were then pretreated with various concentrations of the isolated compounds for 2 h before stimulation with LPS (100 ng/mL) with or without samples for 12 h. Supernatants were then collected and the TNF-α concentrations in the medium were determined using commercially available ESISA kits according to the manufacturer's instructions as described in previous study.
as §2
For orientation: ELISA stands for enzyme-linked immunosorbent assay.

The term IC50 denotes the concentration needed to halve the response being measured. High values mean a need for much substance, low ones inhibition by little substance. Molecule `COc1cc([C@H]2OC[C@H]3[C@@H]2CO[C@@H]3c2cc(OC)c(O)c(OC)c2)cc(OC)c1O` [Comp. 1, syringaresinol] displayed an IC10 values in the data set with RAW264.7 cells of 23.9 ± 1.8 µM. Further, the “inhibitory effect on LPS-induced NO production (in words)” value in data set [1] is “moderate suppression effects”. For the same molecule, in data set [2], the IC50 was less than 2.3 µM and the “inhibitory effect on LPS-induced TNF-α production (in words)” value was “high inhibitory effects”.

In the data set with RAW264.7 cells, `COc1cc(O)cc2c1C(=O)O[C@@H](C)CCCCCCC2` [Comp. 2, lasiodiplodin] displayed an IC10 values of 147.9 ± 15.4 µM. Moreover, the “inhibitory effect on LPS-induced NO production (in words)” value in data set [1] is “moderate suppression effects”.

`CC1CCCCCCCc2cc(O)cc(O)c2C(=O)O1` (centres unmarked) [Comp. 3, de-O-methyllasiodiplodin] displayed an IC10 values with RAW264.7 cells of 154.3 ± 20.5 µM. Besides, the “inhibitory effect on LPS-induced NO production (in words)” value in data set [1] is listed as “moderate suppression effects”.

As a reminder, the inhibition is the relative decrease from the control value, in per cent. Lower therefore signals a weak effect. Turning to `COc1cc(C(=O)O)cc(OC)c1O` [Comp. 4, syringic acid], the IC10 values in the data set on RAW264.7 cells turned out to be 5.1 ± 4.2 µM. Also, in data set [1] (Mus musculus, compound at 0.5 μM), the inhibition at 0.5 µM is roughly 19%. In addition, the inhibition at 5.1 µM in data set [1] (Mus musculus, compound at 5.1 μM) is roughly 25%. Further, the “inhibitory effect on LPS-induced NO production (in words)” value in data set [1] is “significant inhibitory effects”.

Molecule `COc1cc(C(O)C(CO)C(CO)C(O)c2cc(OC)c(O)c(OC)c2)cc(OC)c1O` (centres unmarked) [Comp. 5, 1,4-bis(4-hydroxy-3,5-dimethoxyphenyl)-2,3-bis(hydroxymethyl)-1,4-butanediol] showed an IC10 values in the data set with RAW264.7 cells of 166.0 ± 9.7 µM. The “inhibitory effect on LPS-induced NO production (in words)” value in data set [1] is “moderate suppression effects”. In addition, in data set [2], the IC50 was less than 16.6 µM and the “inhibitory effect on LPS-induced TNF-α production (in words)” value is recorded as “high inhibitory effects”.

Turning to `COc1cc(C2c3c(cc(OC)c(O)c3OC)CC(CO)C2CO)cc(OC)c1O` (centres unmarked) [Comp. 6, lyoniresinol], the IC10 values in the data set on RAW264.7 cells turned out to be 238.1 ± 31.6 µM. This molecule also came in with an inhibition at 238.1 µM in data set [1] (Mus musculus, compound at level of IC10, 238.1 μM) of 32.7%. Besides, the “inhibitory effect on LPS-induced NO production (in words)” value in data set [1] is listed as “lowest inhibitory effects”.

In the data set on RAW264.7 cells, `Oc1ccc(/C=C/c2cc(O)cc(O)c2)cc1` [Comp. 7, trans-resveratrol] displayed an IC10 values of 4.4 ± 5.7 µM. In data set [1] (Mus musculus, compound at 0.4 μM), the inhibition at 0.4 µM is roughly 32%. Besides, the inhibition at 4.4 µM in data set [1] (Mus musculus, compound at 4.4 μM) was roughly 48%. The “inhibitory effect on LPS-induced NO production (in words)” value in data set [1] is on record as “significant inhibitory effects”. Also, in data set [2], the half-maximal inhibitory concentration (IC50) was less than 4.4 µM and the “inhibitory effect on LPS-induced TNF-α production (in words)” value is reported as “high inhibitory effects”.

`COC(=O)/C=C/c1ccc(O)c(O)c1` [Comp. 8, trans-caffeic acid methyl ester] gave an IC10 values in the data set on RAW264.7 cells of 5.2 ± 3.2 µM.

In turn, `O=C1c2c(O)cc(O)cc2O[C@H](c2ccc(O)cc2)[C@H]1O` [Comp. 9, dihydrokaempferol] registered an IC10 values in the data set with RAW264.7 cells of 139.4 ± 10.3 µM. The inhibition at 139.4 µM in data set [1] (Mus musculus, compound at level of IC10, 139.4 μM) was 21.3%. The “inhibitory effect on LPS-induced NO production (in words)” value in data set [1] was “lowest inhibitory effects”.
